Measured values published in patent US8871774B2, “Inhibitors of influenza viruses replication” (priority 2010, dated 2014).
Structures can show the parent of a compound that is named as a salt. Where two headings read alike, the source gives them in different places.

What was measured:
[1] = test system: influenza A virus (A/PR/8/34); assay: cytopathic effect (CPE) assay, MDCK cell protection by ATP detection; type: cell-based; conditions: mean IC50, MDCK cells, A/PR/8/34, 72 hours, 50% cell protection
[2] = test system: Influenza virus, strain A/PR/8/34; assay: microbe, parasite or virus in culture; type: cell-based
[3] = Influenza A virus, Table 1, read-out: Flu, MDCK IC50
[4] = unidentified influenza virus, PR/8, read-out: bDNA EC50 (uM)
[5] = Table 1, read-out: Flu, MDCK IC50
[6] = Influenza A virus, Table 2, read-out: Flu MDCK IC50
[7] = read-out: bDNA EC50, Table 2, mean EC50, viral RNA level 50% of control wells

Row | Compound | IC50 [1, 3] [µM] | EC50 [2, 4] [µM] | further results
1 | O=C(N[C@@H]1CCC[C@H](Nc2nc(-c3n[nH]c4ncc(Cl)cc34)ncc2F)C1)N1CCOCC1 [Compound I-1, N-((1R,3S)-3-((2-(5-chloro-1H-pyrazolo[3,4-b]pyridin-3-yl)-5-fluoropyrimidin-4-yl)amino)cyclohexyl)morpholine-4-carboxamide] | < 3.3 | < 3.3 | 
2 | O=C(N[C@@H]1CCC[C@H](Nc2nc(-c3n[nH]c4ncc(Cl)cc34)ncc2F)C1)N1CCCC1 [Compound I-3, N-((1R,3S)-3-((2-(5-chloro-1H-pyrazolo[3,4-b]pyridin-3-yl)-5-fluoropyrimidin-4-yl)amino)cyclohexyl)pyrrolidine-1-carboxamide] | < 3.3 | < 3.3 | 
3 | O=C(N[C@@H]1CCC[C@H](Nc2nc(-c3n[nH]c4ncc(Cl)cc34)ncc2F)C1)N1CCC[C@H]1CO [Compound I-4, (S)—N-((1R,3S)-3-((2-(5-chloro-1H-pyrazolo[3,4-b]pyridin-3-yl)-5-fluoropyrimidin-4-yl)amino)cyclohexyl)-2-(hydroxymethyl)pyrrolidine-1-carboxamide] | < 3.3 | < 3.3 | 
4 | COC1CCN(C(=O)N[C@@H]2CCC[C@H](Nc3nc(-c4n[nH]c5ncc(Cl)cc45)ncc3F)C2)C1 (stereo partly drawn) [Compound I-5, N-((1R,3S)-3-((2-(5-chloro-1H-pyrazolo[3,4-b]pyridin-3-yl)-5-fluoropyrimidin-4-yl)amino)cyclohexyl)-3-methoxypyrrolidine-1-carboxamide] | < 3.3 | < 3.3 | 
5 | O=C(N[C@@H]1CCC[C@H](Nc2nc(-c3n[nH]c4ncccc34)ncc2F)C1)N1CCOCC1 [Compound I-7] | < 3.3 | < 3.3 | 
6 | O=C(O)[C@H]1C2CCC(CC2)[C@@H]1Nc1nc(-c2n[nH]c3ncc(Cl)cc23)ncc1F [Compound I-9, (2S,3 S)-3-((2-(5-chloro-1H-pyrazolo[3,4-b]pyridin-3-yl)-5-fluoropyrimidin-4-yl)-amino)bicyclo[2.2.2]octane-2-carboxylic acid] | < 3.3 | < 3.3 | 
7 | O=C(O)[C@@H]1C2CCC(CC2)[C@H]1Nc1nc(-c2n[nH]c3ncc(Cl)cc23)ncc1F [Compound I-10, (2R,3R)-3-((2-(5-chloro-1H-pyrazolo[3,4-b]pyridin-3-yl)-5-fluoropyrimidin-4-yl)-amino)bicyclo[2.2.2]octane-2-carboxylic acid] | < 3.3 | < 3.3 | 
8 | O=C(N[C@@H]1CCC[C@H](Nc2nc(-c3n[nH]c4ncccc34)ncc2F)C1)N1CCCC1 [Compound I-12, N-((1R,3S)-3-((5-fluoro-2-(1H-pyrazolo[3,4-b]pyridin-3-yl)pyrimidin-4-yl)amino)cyclohexyl)pyrrolidine-1-carboxamide] | < 3.3 | < 3.3 | 
9 | C[C@H]1CCCN1C(=O)N[C@@H]1CCC[C@H](Nc2nc(-c3n[nH]c4ncccc34)ncc2F)C1 [Compound I-15, (S)—N-((1R,3S)-3-((5-fluoro-2-(1H-pyrazolo[3,4-b]pyridin-3-yl)pyrimidin-4-yl)-amino)cyclohexyl)-2-methylpyrrolidine-1-carboxamide] | < 3.3 | < 3.3 | 
10 | O=C(N[C@@H]1CCC[C@H](Nc2nc(-c3n[nH]c4ncccc34)ncc2F)C1)N1CCC(F)(F)C1 [Compound I-16, 3,3-difluoro-N-((1R,3S)-3-((5-fluoro-2-(1H-pyrazolo[3,4-b]pyridin-3-yl)pyrimidin-4-yl)amino)cyclohexyl)pyrrolidine-1-carboxamide] | < 3.3 | < 3.3 | 
11 | O=C(N[C@@H]1CCC[C@H](Nc2nc(-c3n[nH]c4ncccc34)ncc2F)C1)N1CC[C@H](F)C1 [Compound I-17, (S)-3-fluoro-N-((1R,3S)-3-((5-fluoro-2-(1H-pyrazolo[3,4-b]pyridin-3-yl)pyrimidin-4-yl)amino)cyclohexyl)pyrrolidine-1-carboxamide] | < 3.3 | < 3.3 | 
12 | C[C@@H]1CCCN1C(=O)N[C@@H]1CCC[C@H](Nc2nc(-c3n[nH]c4ncccc34)ncc2F)C1 [Compound I-18, (R)—N-((1R,3S)-3-((5-fluoro-2-(1H-pyrazolo[3,4-b]pyridin-3-yl)pyrimidin-4-yl)amino)cyclohexyl)-2-methylpyrrolidine-1-carboxamide] | < 3.3 | < 3.3 | 
13 | O=C(N[C@@H]1CCC[C@H](Nc2nc(-c3n[nH]c4ncccc34)ncc2F)C1)N1CC[C@@H](F)C1 [Compound I-19, (R)-3-fluoro-N-((1R,3S)-3-((5-fluoro-2-(1H-pyrazolo[3,4-b]pyridin-3-yl)pyrimidin-4-yl)amino)cyclohexyl)pyrrolidine-1-carboxamide] | < 3.3 | < 3.3 | 
14 | O=C(N[C@@H]1CCC[C@H](Nc2nc(-c3n[nH]c4ncccc34)ncc2F)C1)N1CCC(F)CC1 [Compound I-20] | < 3.3 | < 3.3 | 
15 | O=C(N[C@@H]1CCC[C@H](Nc2nc(-c3n[nH]c4ncc(F)cc34)ncc2F)C1)N1CCOCC1 [Compound I-21, N-((1R,3S)-3-((5-fluoro-2-(5-fluoro-1H-pyrazolo[3,4-b]pyridin-3-yl)pyrimidin-4-yl)amino)cyclohexyl)morpholine-4-carboxamide] | < 3.3 | < 3.3 | 
16 | O=C(N[C@@H]1CCC[C@H](Nc2nc(-c3n[nH]c4ncccc34)ncc2F)C1)N1CCCCC1 [Compound I-22, N-((1R,3S)-3-((5-fluoro-2-(1H-pyrazolo[3,4-b]pyridin-3-yl)pyrimidin-4-yl)amino)-cyclohexyl)piperidine-1-carboxamide] | < 3.3 | < 3.3 | 
17 | O=C(N[C@@H]1CCC[C@H](Nc2nc(-c3n[nH]c4ncc(F)cc34)ncc2F)C1)N1CC[C@@H](F)C1 [Compound I-23, (R)-3-fluoro-N-((1R,3S)-3-((5-fluoro-2-(5-fluoro-1H-pyrazolo[3,4-b]pyridin-3-yl)pyrimidin-4-yl)amino)cyclohexyl)pyrrolidine-1-carboxamide] | < 3.3 | < 3.3 | 
18 | Cn1cnc(C(=O)N[C@@H]2CCC[C@H](Nc3nc(-c4n[nH]c5ncccc45)ncc3F)C2)c1 [Compound I-24, N-((1R,3S)-3-((5-fluoro-2-(1H-pyrazolo[3,4-b]pyridin-3-yl)pyrimidin-4-yl)amino)cyclohexyl)-1-methyl-1H-imidazole-4-carboxamide] | < 3.3 | < 3.3 | 
19 | C[C@H]1CCN(C(=O)N[C@@H]2CCC[C@H](Nc3nc(-c4n[nH]c5ncccc45)ncc3F)C2)C1 [Compound I-25, (S)—N-((1R,3S)-3-((5-fluoro-2-(1H-pyrazolo[3,4-b]pyridin-3-yl)pyrimidin-4-yl)-amino)cyclohexyl)-3-methylpyrrolidine-1-carboxamide] | < 3.3 | < 3.3 | 
20 | Cn1cncc1C(=O)N[C@@H]1CCC[C@H](Nc2nc(-c3n[nH]c4ncc(F)cc34)ncc2F)C1 [Compound I-27, N-((1R,3S)-3-((5-fluoro-2-(5-fluoro-1H-pyrazolo[3,4-b]pyridin-3-yl)pyrimidin-4-yl)amino)cyclohexyl)-1-methyl-tH-imidazole-5-carboxamide] |  |  | IC50 [1, 5]: < 3.3 µM; EC50 ([2]; Table 1, mean EC50, viral RNA level 50% of control wells, read-out: bDNA EC50): < 3.3 µM
21 | O=C(O)[C@H]1C2CCC(CC2)[C@@H]1Nc1nc(-c2n[nH]c3ncc(F)cc23)ncc1F [Compound I-29] | < 3.3 | < 3.3 | 
22 | O=C(O)[C@H]1C2CCC(CC2)[C@@H]1Nc1nc(-c2n[nH]c3ncc(F)cc23)ncc1F [Compound I-31, (2S,3S)-3-(5-fluoro-2-(5-fluoro-1H-pyrazolo[3,4-b]pyridin-3-yl)pyrimidin-4-ylamino)bicyclo[2.2.2]octane-2-carboxylic acid sodium salt] |  |  | IC50 [1, 5]: < 3.3 µM; EC50 ([2]; read-out: bDNA EC50, Table 1, mean EC50, viral RNA level 50% of control wells): < 3.3 µM
23 | O=C(O)[C@H]1C2CCC(CC2)[C@@H]1Nc1nc(-c2n[nH]c3ncc(F)cc23)ncc1Cl [Compound I-34, (2S,3S)-3-((5-chloro-2-(5-fluoro-1H-pyrazolo[3,4-b]pyridin-3-yl)pyrimidin-4-yl)amino)bicyclo[2.2.2]octane-2-carboxylic acid] | < 3.3 | < 3.3 | 
24 | O=C(O)[C@@H]1C2CCC(CC2)[C@H]1Nc1nc(-c2n[nH]c3ncc(F)cc23)ncc1Cl [Compound I-35, (2R,3R)-3-((5-chloro-2-(5-fluoro-1H-pyrazolo[3,4-b]pyridin-3-yl)pyrimidin-4-yl)amino)bicyclo[2.2.2]octane-2-carboxylic acid] | < 3.3 | < 3.3 | 
25 | O=C(O)[C@@H]1CCCC2(CCCC2)[C@@H]1Nc1nc(-c2n[nH]c3ncc(F)cc23)ncc1F [Compound I-38] | < 3.3 | < 3.3 | 
26 | O=C(O)[C@H]1CCCC2(CCCC2)[C@H]1Nc1nc(-c2n[nH]c3ncc(F)cc23)ncc1F [Compound I-39, (6S,7S)-6-((5-fluoro-2-(5-fluoro-1H-pyrazolo[3,4-b]pyridin-3-yl)pyrimidin-4-yl)amino)spiro[4.5]decane-7-carboxylic acid] |  | < 3.3 | IC50 [1, 6]: < 3.3 µM
27 | O=C(O)[C@@H]1CCCC2(CCCC2)[C@@H]1Nc1nc(-c2n[nH]c3ncc(F)cc23)ncc1F [Compound I-40, (6R,7R)-6-((5-fluoro-2-(5-fluoro-1H-pyrazolo[3,4-b]pyridin-3-yl)-pyrimidin-4-yl)amino)spiro[4.5]decane-7-carboxylic acid] |  |  | IC50 [1, 6]: < 3.3 µM; EC50 [2, 7]: < 3.3 µM
28 | O=C(N[C@@H]1CCC[C@H](Nc2nc(-c3n[nH]c4ncc(F)cc34)ncc2F)C1)c1ccsc1 [Compound I-41, N-((1R,3S)-3-((5-fluoro-2-(5-fluoro-1H-pyrazolo[3,4-b]pyridin-3-yl)pyrimidin-4-yl)amino)cyclohexyl)thiophene-3-carboxamide] |  | < 3.3 | IC50 [1, 6]: < 3.3 µM
29 | O=C(O)[C@H]1C2CCC(CC2)[C@@H]1Nc1nc(-c2n[nH]c3ncc(F)cc23)ncc1F [Compound I-44] |  |  | IC50 [1, 6]: < 3.3 µM; EC50 [2, 7]: < 3.3 µM
